Where two headings read alike, the source gives them in different places.
How the values were obtained:
DLD-1 BRCA2−/− cells = assay: Homologous recombination synthetic lethal inhibition of proliferation, DLD-1 BRCA2-/- (Cell Titre Glo 3D); assay type: cell-based; conditions: Homo sapiens
Procedure, shortened: (§1)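 Luminescent Cell Titre Glo 3D readout, taken on day 12 for homologous-recombination-deficient DLD-1 BRCA2−/− and day 7 for the wild-type control, after compound refresh on day 6. Compounds spanned 10 μM to 0.51 nM in three-fold steps; IC50 defined as 50% reduction of average maximum signal.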

DLD-1 cells = assay: Inhibition of proliferation, DLD-1 BRCA2 wt control (Cell Titre Glo 3D); assay type: cell-based; conditions: Homo sapiens
Procedure, shortened: as §1

[1] = DLD-1, DLD-1 BRCA2 −/− cells, mean, read-out: POLQ PD Prolif Lumin BRCA2 −/− mean pIC50 (converted)
[2] = DLD-1, DLD1 BRCA2 wt cells, mean, read-out: POLQ PD Prolif Lumin DLD1 mean PIC50 (converted)
[3] = DLD-1, first proliferation column (c5), DLD-1 BRCA2-/-, read-out: POLQ PD Prolif Lumin (converted)
[4] = DLD-1, second proliferation column (c6), DLD-1 BRCA2 wt control, read-out: POLQ PD Prolif Lumin (converted)

Row | Structure (SMILES) | IC50 (DLD-1 BRCA2−/− cells; [1]) | IC50 (DLD-1 cells; [2]) | IC50 (DLD-1 BRCA2−/− cells; [3]) | IC50 (DLD-1 cells; [4])
1 | Cc1cnc(Cn2c(-c3ccc(OCCN(C)C)cc3Cl)nc3c(OC4(C)CC4)ncnc32)s1 [Example T72, 2-(3-chloro-4-(6-(1-methylcyclopropoxy)-9-((5-methylthiazol-2-yl)methyl)-9H-purin-8-yl)phenoxy)-N,N-dimethylethan-1-amine] | 200 nM | > 10000 nM |  | 
2 | Cc1cnc(Cn2c(-c3cccc(OCCN(C)C)c3Cl)nc3c(OC4(C)CC4)ncnc32)s1 [Example T73, 2-(2-chloro-3-(6-(1-methylcyclopropoxy)-9-((5-methylthiazol-2-yl)methyl)-9H-purin-8-yl)phenoxy)-N,N-dimethylethan-1-amine] | 631 nM | > 10000 nM |  | 
3 | CNCCCOc1ccc(-c2nc3c(OC4(C)CC4)ncnc3n2Cc2ncc(C)s2)c(Cl)c1 [Example T74, 3-(3-chloro-4-(6-(1-methylcyclopropoxy)-9-((5-methylthiazol-2-yl)methyl)-9H-purin-8-yl)phenoxy)-N-methylpropan-1-amine] | 501 nM | > 10000 nM |  | 
4 | CC1(Oc2ncnc3c2nc(-c2ccc(OCCN4CCNCC4)cc2Cl)n3Cc2nnco2)CC1 [Example T76, 2-((8-(2-chloro-4-(2-(piperazin-1-yl)ethoxy)phenyl)-6-(1-methylcyclopropoxy)-9H-purin-9-yl)methyl)-1,3,4-oxadiazole] | > 10000 nM | > 3160 nM |  | 
5 | CC1(Oc2ncnc3c2nc(-c2cccc(/C=C/C(=O)O)c2Cl)n3Cc2cccc(Cl)c2)CC1 [Example T80, (E)-3-(2-chloro-3-(9-(3-chlorobenzyl)-6-(1-methylcyclopropoxy)-9H-purin-8-yl)phenyl)acrylic acid] | 100 nM | > 10000 nM |  | 
6 | CC1(Oc2ncnc3c2nc(-c2ccc(OCCC(=O)O)cc2Cl)n3Cc2cccc(Cl)c2Cl)CC1 [Example T85, 3-(3-chloro-4-(9-(2,3-dichlorobenzyl)-6-(1-methylcyclopropoxy)-9H-purin-8-yl)phenoxy)propanoic acid] | 794 nM | > 10000 nM |  | 
7 | CC1(Oc2ncnc3c2nc(-c2ccc(OCCC(=O)O)cc2Cl)n3Cc2cccc(Cl)c2)CC1 [Example T87, 3-(3-chloro-4-(9-(3-chlorobenzyl)-6-(1-methylcyclopropoxy)-9H-purin-8-yl)phenoxy)propanoic acid] | 398 nM | > 10000 nM |  | 
8 | CC1(Oc2ncnc3c2nc(-c2cccc(OCCC(=O)O)c2Cl)n3Cc2cccc(Cl)c2)CC1 [Example T89, 3-(2-chloro-3-(9-(3-chlorobenzyl)-6-(1-methylcyclopropoxy)-9H-purin-8-yl)phenoxy)propanoic acid] | 39.8 nM | > 10000 nM |  | 
9 | C[C@@H](Oc1cccc(-c2nc3c(OC4(C)CC4)ncnc3n2Cc2cccc(Cl)c2)c1Cl)C(=O)O [Example T91, (R)-2-(2-chloro-3-(9-(3-chlorobenzyl)-6-(1-methylcyclopropoxy)-9H-purin-8-yl)phenoxy)propanoic acid] | > 10000 nM | > 10000 nM |  | 
10 | CC1(Oc2ncnc3c2nc(-c2ccc(OCCc4nn[nH]n4)cc2Cl)n3Cc2cccc(Cl)c2)CC1 [Example T92, 8-(4-(2-(2H-tetrazol-5-yl)ethoxy)-2-chlorophenyl)-9-(3-chlorobenzyl)-6-(1-methylcyclopropoxy)-9H-purine] | 2000 nM | > 10000 nM |  | 
11 | CC(=O)COc1ccc(-c2nc3c(OC4(C)CC4)ncnc3n2Cc2cc(C)ccn2)c(Cl)c1 [Example T104, 1-(3-chloro-4-(6-(1-methylcyclopropoxy)-9-((4-methylpyridin-2-yl)methyl)-9H-purin-8-yl)phenoxy)propan-2-one] |  |  | 200 nM | > 10000 nM
12 | Cc1ccnc(Cn2c(-c3ccc(N4CCNC4=O)cc3Cl)nc3c(OC4(C)CC4)ncnc32)c1 [Example T107, 1-(3-chloro-4-(6-(1-methylcyclopropoxy)-9-((4-methylpyridin-2-yl)methyl)-9H-purin-8-yl)phenyl)imidazolidin-2-one] |  |  | 398 nM | > 10000 nM
13 | Cc1ccnc(Cn2c(-c3ccc(OC4CNC4)cc3Cl)nc3c(OC4(C)CC4)ncnc32)c1 [Example T111, 8-(4-(azetidin-3-yloxy)-2-chlorophenyl)-6-(1-methylcyclopropoxy)-9-((4-methylpyridin-2-yl)methyl)-9H-purine] |  |  | 316 nM | > 10000 nM
14 | Cc1ccnc(Cn2c(-c3ccc(C(=O)N(C)C)cc3Cl)nc3c(OC4(C)CC4)ncnc32)c1 [Example T112, 3-chloro-N,N-dimethyl-4-(6-(1-methylcyclopropoxy)-9-((4-methylpyridin-2-yl)methyl)-9H-purin-8-yl)benzamide] |  |  | 1580 nM | > 10000 nM
15 | Cc1ccnc(Cn2c(-c3ccc(CCC(N)=O)cc3Cl)nc3c(OC4(C)CC4)ncnc32)c1 [Example T116, 3-(3-chloro-4-(6-(1-methylcyclopropoxy)-9-((4-methylpyridin-2-yl)methyl)-9H-purin-8-yl)phenyl)propanamide] |  |  | 631 nM | > 10000 nM
16 | Cc1ccnc(Cn2c(-c3ccc(C(=O)NCCO)cc3Cl)nc3c(OC4(C)CC4)ncnc32)c1 [Example T119, 3-chloro-N-(2-hydroxyethyl)-4-(6-(1-methylcyclopropoxy)-9-((4-methylpyridin-2-yl)methyl)-9H-purin-8-yl)benzamide] |  |  | 794 nM | > 10000 nM
17 | CNC(=O)COc1cccc(-c2nc3c(OC4(C)CC4)ncnc3n2Cc2cc(C)ccn2)c1Cl [Example T120, 2-(2-chloro-3-(6-(1-methylcyclopropoxy)-9-((4-methylpyridin-2-yl)methyl)-9H-purin-8-yl)phenoxy)-N-methylacetamide] |  |  | 158 nM | > 6310 nM
18 | Cc1ccnc(Cn2c(-c3ccc(NC(=O)[C@@H](C)O)cc3Cl)nc3c(OC4(C)CC4)ncnc32)c1 [Example T121, (R)-N-(3-chloro-4-(6-(1-methylcyclopropoxy)-9-((4-methylpyridin-2-yl)methyl)-9H-purin-8-yl)phenyl)-2-hydroxypropanamide] |  |  | 316 nM | > 10000 nM
19 | Cc1ccnc(Cn2c(-c3ccc(NC(=O)OCCO)cc3Cl)nc3c(OC4(C)CC4)ncnc32)c1 [Example T123, 2-hydroxyethyl (3-chloro-4-(6-(1-methylcyclopropoxy)-9-((4-methylpyridin-2-yl)methyl)-9H-purin-8-yl)phenyl)carbamate] |  |  | 200 nM | > 10000 nM
20 | Cc1ccnc(Cn2c(-c3ccc(OCCS(C)(=O)=O)cc3Cl)nc3c(OC4(C)CC4)ncnc32)c1 [Example T129, 8-(2-chloro-4-(2-(methylsulfonyl)ethoxy)phenyl)-6-(1-methylcyclopropoxy)-9-((4-methylpyridin-2-yl)methyl)-9H-purine] |  |  | 158 nM | > 10000 nM
21 | Cc1ccnc(Cn2c(-c3ccc(NC(=O)NCCO)cc3Cl)nc3c(OC4(C)CC4)ncnc32)c1 [Example T132, 1-(3-chloro-4-(6-(1-methylcyclopropoxy)-9-((4-methylpyridin-2-yl)methyl)-9H-purin-8-yl)phenyl)-3-(2-hydroxyethyl)urea] |  |  | 2000 nM | > 10000 nM
22 | CNCCCOc1ccc(-c2nc3c(OC4(C)CC4)ncnc3n2Cc2cc(Cl)ccn2)c(Cl)c1 [Example T134, 3-(3-chloro-4-(9-((4-chloropyridin-2-yl)methyl)-6-(1-methylcyclopropoxy)-9H-purin-8-yl)phenoxy)-N-methylpropan-1-amine] |  |  | 126 nM | > 10000 nM
23 | CN(C)CCOc1ccc(-c2nc3c(OC4(C)CC4)ncnc3n2Cc2cc(Cl)ccn2)c(Cl)c1 [Example T135, 2-(3-chloro-4-(9-((4-chloropyridin-2-yl)methyl)-6-(1-methylcyclopropoxy)-9H-purin-8-yl)phenoxy)-N,N-dimethylethan-1-amine] |  |  | 50.1 nM | > 10000 nM
24 | Cc1ccnc(Cn2c(-c3ccc(CN(C)C)cc3Cl)nc3c(OC4(C)CC4)ncnc32)c1 [Example T136, 1-(3-chloro-4-(6-(1-methylcyclopropoxy)-9-((4-methylpyridin-2-yl)methyl)-9H-purin-8-yl)phenyl)-N,N-dimethylmethanamine] |  |  | 501 nM | > 10000 nM
25 | CNCCOc1ccc(-c2nc3c(OC4(C)CC4)ncnc3n2Cc2cc(C)ccn2)c(Cl)c1 [Example T137, 2-(3-chloro-4-(6-(1-methylcyclopropoxy)-9-((4-methylpyridin-2-yl)methyl)-9H-purin-8-yl)phenoxy)-N-methylethan-1-amine] |  |  | 200 nM | > 10000 nM
26 | Cc1cnc(Cn2c(-c3ccc(OC4CCNCC4)cc3Cl)nc3c(OC4(C)CC4)ncnc32)s1 [Example T138, 2-((8-(2-chloro-4-(piperidin-4-yloxy)phenyl)-6-(1-methylcyclopropoxy)-9H-purin-9-yl)methyl)-5-methylthiazole] |  |  | 501 nM | > 10000 nM
27 | Cc1cnc(Cn2c(-c3ccc(OC[C@H]4CCCN4)cc3Cl)nc3c(OC4(C)CC4)ncnc32)s1 [Example T139, (R)-2-((8-(2-chloro-4-(pyrrolidin-2-ylmethoxy)phenyl)-6-(1-methylcyclopropoxy)-9H-purin-9-yl)methyl)-5-methylthiazole] |  |  | 398 nM | > 10000 nM
28 | Cc1cnc(Cn2c(-c3ccc(O[C@H]4CCN(C)C4)cc3Cl)nc3c(OC4(C)CC4)ncnc32)s1 [Example T140, (S)-2-((8-(2-chloro-4-((1-methylpyrrolidin-3-yl)oxy)phenyl)-6-(1-methylcyclopropoxy)-9H-purin-9-yl)methyl)-5-methylthiazole] |  |  | 251 nM | > 10000 nM
